ChEMBL document CHEMBL5247626, “In vitro and in vivo biological evaluation of newly synthesized multi-target 20(R)-panaxadiol derivatives for treating Alzheimer's disease” (Eur J Med Chem, 2022)
Calls of active or inactive are those of the source. No cut-off for these calls is given here.

Key:
[1] = tested on: PC-12; assay: Neuroprotective activity against rat PC12 cells assessed as reduction in amyloid beta (25 to 35)-induced cytotoxicity at 15 uM incubated for 4 hrs followed by amyloid beta (25 to 35) treatment for 24 hrs by MTT assay relative to control; format: functional; parameters: scale not given: the % may be the effect or the level left; conditions: time 28 hrs
[2] = biological target: Amyloid-beta precursor protein (Homo sapiens) (UniProt P05067); assay: Disaggregation of amyloid beta (25 to 35) (unknown origin) self aggregation at 15 uM incubated for 24 hrs by transmission electron microscopy analysis
[3] = Permeability of the compound incubated for 4 hrs by PAMPA-BBB assay based HPLC analysis
[4] = tested on: Mus musculus; assay: Antialzheimer activity against amyloid beta (25 to 35)-induced cognitive deficit ICR mouse model assessed as increase in discrimination index at 1.3 mg/kg,po observed after 24 hrs of administration by novel object recognition test; format: functional, organism-based
[5] = tested on: Mus musculus; assay: Antialzheimer activity against amyloid beta (25 to 35)-induced spatial memory deficit ICR mouse model assessed as increase in exploration time spent at 1.3 mg/kg,po observed at 16 to 20 days of administration by morris water maze test; format: functional, organism-based; conditions: time 16-20 day
[6] = tested on: Mus musculus; assay: Antialzheimer activity against amyloid beta (25 to 35)-induced cognitive deficit ICR mouse model assessed as increase in discrimination index at 1.3 mg/kg,po observed after 1 hr of administration by novel object recognition test; format: functional, organism-based
[7] = tested on: Mus musculus; assay: Antialzheimer activity against amyloid beta (25 to 35)-induced cognitive deficit ICR mouse model assessed as effect on total number of arm enteries at 1.3 mg/kg,po observed after 11 days of administration by Y maze test; format: functional, organism-based; conditions: time 11.0 day
[8] = tested on: PC-12; assay: Neuroprotective activity against amyloid beta (25 to 35)-induced rat PC12 cells assessed as decrease in total tau protein expression level at 15 uM preincubated for 30 mins followed by amyloid beta (25 to 35) addition and measured after 24 hrs by western blot assay; format: functional, cell-based; conditions: time 24.5 hrs
[9] = tested on: PC-12; assay: Neuroprotective activity against amyloid beta (25 to 35)-induced rat PC12 cells assessed as decrease in tau hyperphosphorylation at Thr181 at 15 uM preincubated for 30 mins followed by amyloid beta (25 to 35) addition and measured after 24 hrs by western blot assay; format: functional, cell-based; conditions: time 24.5 hrs
[10] = tested on: Mus musculus; assay: Antialzheimer activity against amyloid beta (25 to 35)-induced cognitive deficit ICR mouse model assessed as increase in preferential index at 1.3 mg/kg,po observed after 1 hr of administration by novel object recognition test; format: functional, organism-based
[11] = tested on: Mus musculus; assay: Antialzheimer activity against amyloid beta (25 to 35)-induced cognitive deficit ICR mouse model assessed as attenuation of behavioral deficit at 1.3 mg/kg,po observed after 12 to 15 days of administration by Y maze test; format: functional, organism-based; conditions: time 12-15 day
[12] = tested on: Mus musculus; assay: Antialzheimer activity against amyloid beta (25 to 35)-induced spatial memory deficit ICR mouse model assessed as increase in distance travelled in target quadrant at 1.3 mg/kg,po observed at 16 to 20 days of administration by morris water maze test; format: functional, organism-based; conditions: time 16-20 day
[13] = tested on: Mus musculus; assay: Antialzheimer activity against amyloid beta (25 to 35)-induced cognitive deficit ICR mouse model assessed as increase in preferential index at 1.3 mg/kg,po observed after 24 hrs of administration by novel object recognition test; format: functional, organism-based

Chain of Amyloid-beta precursor protein (Homo sapiens) (P05067 whole entry): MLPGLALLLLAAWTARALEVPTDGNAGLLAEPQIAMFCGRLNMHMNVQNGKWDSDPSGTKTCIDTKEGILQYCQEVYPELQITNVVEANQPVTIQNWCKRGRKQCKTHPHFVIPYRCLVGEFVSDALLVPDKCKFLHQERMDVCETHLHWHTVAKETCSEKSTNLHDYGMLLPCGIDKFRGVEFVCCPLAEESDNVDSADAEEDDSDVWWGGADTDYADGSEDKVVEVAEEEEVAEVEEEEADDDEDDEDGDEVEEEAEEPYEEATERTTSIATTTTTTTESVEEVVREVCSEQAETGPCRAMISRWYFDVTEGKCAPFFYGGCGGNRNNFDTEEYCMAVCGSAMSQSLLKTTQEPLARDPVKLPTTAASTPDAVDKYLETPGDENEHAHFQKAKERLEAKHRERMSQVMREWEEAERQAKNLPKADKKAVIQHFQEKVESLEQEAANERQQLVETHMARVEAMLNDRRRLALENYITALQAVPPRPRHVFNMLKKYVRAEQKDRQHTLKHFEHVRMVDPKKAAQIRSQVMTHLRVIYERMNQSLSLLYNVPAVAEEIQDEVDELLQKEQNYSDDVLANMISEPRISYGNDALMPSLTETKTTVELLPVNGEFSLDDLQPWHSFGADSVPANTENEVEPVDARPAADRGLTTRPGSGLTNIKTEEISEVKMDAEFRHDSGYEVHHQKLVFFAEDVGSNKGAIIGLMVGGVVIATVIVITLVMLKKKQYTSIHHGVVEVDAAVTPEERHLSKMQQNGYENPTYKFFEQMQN

SMILES	Activity [1]	also measured
CC1(C)CCC[C@](C)([C@H]2CC[C@]3(C)[C@@H]2[C@H](O)C[C@@H]2[C@@]4(C)CC[C@H](OC(=O)c5cn(-c6ccc([N+](=O)[O-])cc6)nn5)C(C)(C)[C@@H]4CC[C@]23C)O1	23.76%	
CCNC(=O)O[C@H]1CC[C@]2(C)[C@H]3C[C@@H](O)[C@@H]4[C@@H]([C@@]5(C)CCCC(C)(C)O5)CC[C@@]4(C)[C@]3(C)CC[C@H]2C1(C)C	65.69%	
COc1cc(/C=C/C(=O)O[C@H]2CC[C@]3(C)[C@H]4C[C@@H](O)[C@@H]5[C@@H]([C@@]6(C)CCCC(C)(C)O6)CC[C@@]5(C)[C@]4(C)CC[C@H]3C2(C)C)ccc1O	55.55%	
CCCCCCNC(=O)O[C@H]1CC[C@]2(C)[C@H]3C[C@@H](O)[C@@H]4[C@@H]([C@@]5(C)CCCC(C)(C)O5)CC[C@@]4(C)[C@]3(C)CC[C@H]2C1(C)C	50.09%	
COC(=O)[C@H](NC(=O)CCC(=O)O[C@H]1CC[C@]2(C)[C@H]3C[C@@H](O)[C@@H]4[C@@H]([C@@]5(C)CCCC(C)(C)O5)CC[C@@]4(C)[C@]3(C)CC[C@H]2C1(C)C)c1ccccc1	22.85%	
COC(=O)[C@@H](Cc1ccccc1)NC(=O)CCC(=O)O[C@H]1CC[C@]2(C)[C@H]3C[C@@H](O)[C@@H]4[C@@H]([C@@]5(C)CCCC(C)(C)O5)CC[C@@]4(C)[C@]3(C)CC[C@H]2C1(C)C	33.77%	
COc1cc(/C=C/C(=O)CC(=O)/C=C/c2ccc(O)c(OC)c2)ccc1O		Activity [2]: Active
CC1(C)CCC[C@](C)([C@H]2CC[C@]3(C)[C@@H]2[C@H](O)C[C@@H]2[C@@]4(C)CC[C@H](OC(=O)CN5CCCCC5)C(C)(C)[C@@H]4CC[C@]23C)O1.Cl	12.66%	
CCCCCCCNC(=O)O[C@H]1CC[C@]2(C)[C@H]3C[C@@H](O)[C@@H]4[C@@H]([C@@]5(C)CCCC(C)(C)O5)CC[C@@]4(C)[C@]3(C)CC[C@H]2C1(C)C	59.9%	
COc1ccc(OP(=O)(Oc2ccc(OC)cc2)O[C@H]2CC[C@]3(C)[C@H]4C[C@@H](O)[C@@H]5[C@@H]([C@@]6(C)CCCC(C)(C)O6)CC[C@@]5(C)[C@]4(C)CC[C@H]3C2(C)C)cc1	57.15%	
CC1(C)CCC[C@](C)([C@H]2CC[C@]3(C)[C@@H]2[C@H](O)C[C@@H]2[C@@]4(C)CC[C@H](OC(=O)Nc5ccc(Cl)cc5)C(C)(C)[C@@H]4CC[C@]23C)O1	64.16%	
COC(=O)[C@H](NC(=O)CCC(=O)O[C@H]1CC[C@]2(C)[C@H]3C[C@@H](O)[C@@H]4[C@@H]([C@@]5(C)CCCC(C)(C)O5)CC[C@@]4(C)[C@]3(C)CC[C@H]2C1(C)C)C(C)C	25.34%	
CC1(C)CCC[C@](C)([C@H]2CC[C@]3(C)[C@@H]2[C@H](O)C[C@@H]2[C@@]4(C)CC[C@H](OC(=O)Nc5cccc(F)c5)C(C)(C)[C@@H]4CC[C@]23C)O1	65.25%	
COc1cc(/C=C/C(=O)O[C@H]2CC[C@]3(C)[C@H]4C[C@@H](O)[C@@H]5[C@@H]([C@@]6(C)CCCC(C)(C)O6)CC[C@@]5(C)[C@]4(C)CC[C@H]3C2(C)C)cc(OC)c1OC	36.23%	
COc1ccc(NC(=O)O[C@H]2CC[C@]3(C)[C@H]4C[C@@H](O)[C@@H]5[C@@H]([C@@]6(C)CCCC(C)(C)O6)CC[C@@]5(C)[C@]4(C)CC[C@H]3C2(C)C)cc1	65.27%	
CC1(C)CCC[C@](C)([C@H]2CC[C@]3(C)[C@@H]2[C@H](O)C[C@@H]2[C@@]4(C)CC[C@H](OC(=O)CN5CCOCC5)C(C)(C)[C@@H]4CC[C@]23C)O1.Cl	23.96%	
CC1(C)CCC[C@](C)([C@H]2CC[C@]3(C)[C@@H]2[C@H](O)C[C@@H]2[C@@]4(C)CC[C@H](OC(=O)/C=C/c5ccco5)C(C)(C)[C@@H]4CC[C@]23C)O1	40.56%	
Cc1ccc(NC(=O)O[C@H]2CC[C@]3(C)[C@H]4C[C@@H](O)[C@@H]5[C@@H]([C@@]6(C)CCCC(C)(C)O6)CC[C@@]5(C)[C@]4(C)CC[C@H]3C2(C)C)cc1	64.13%	

SMILES	Activity [1]	also measured
C=CCNC(=O)O[C@H]1CC[C@]2(C)[C@H]3C[C@@H](O)[C@@H]4[C@@H]([C@@]5(C)CCCC(C)(C)O5)CC[C@@]4(C)[C@]3(C)CC[C@H]2C1(C)C	70.06%	
CC1(C)CCC[C@](C)([C@H]2CC[C@]3(C)[C@@H]2[C@H](O)C[C@@H]2[C@@]4(C)CC[C@H](OC(=O)c5cn(-c6ccc(F)cc6)nn5)C(C)(C)[C@@H]4CC[C@]23C)O1	33.68%	
CC1(C)CCC[C@](C)([C@H]2CC[C@]3(C)[C@@H]2[C@H](O)C[C@@H]2[C@@]4(C)CC[C@H](OC(=O)/C=C/c5ccc(N6CCOCC6)cc5)C(C)(C)[C@@H]4CC[C@]23C)O1	32.75%	
CC1(C)CCC[C@](C)([C@H]2CC[C@]3(C)[C@@H]2[C@H](O)C[C@@H]2[C@@]4(C)CC[C@H](OC(=O)c5cn(-c6ccc(Cl)cc6)nn5)C(C)(C)[C@@H]4CC[C@]23C)O1	36.15%	
NC(=O)N1c2ccccc2C=Cc2ccccc21 [CARBAMAZEPINE]		Papp at 4 h [3]: 8.78 ×10⁻⁶ cm/s
CC1(C)CCC[C@](C)([C@H]2CC[C@]3(C)[C@@H]2[C@H](O)C[C@@H]2[C@@]4(C)CC[C@H](OC(=O)Nc5ccc(F)cc5)C(C)(C)[C@@H]4CC[C@]23C)O1	67.4%	
CC1(C)CCC[C@](C)([C@H]2CC[C@]3(C)[C@@H]2[C@H](O)C[C@@H]2[C@@]4(C)CC[C@H](OP(=O)(Oc5ccc(F)cc5)Oc5ccc(F)cc5)C(C)(C)[C@@H]4CC[C@]23C)O1	48.68%	
CC(C)NC(=O)O[C@H]1CC[C@]2(C)[C@H]3C[C@@H](O)[C@@H]4[C@@H]([C@@]5(C)CCCC(C)(C)O5)CC[C@@]4(C)[C@]3(C)CC[C@H]2C1(C)C	69.45%	
CC1(C)CCC[C@](C)([C@H]2CC[C@]3(C)[C@@H]2[C@H](O)C[C@@H]2[C@@]4(C)CC[C@H](OC(=O)c5cn(-c6ccccc6)nn5)C(C)(C)[C@@H]4CC[C@]23C)O1	25.49%	
CCCNC(=O)O[C@H]1CC[C@]2(C)[C@H]3C[C@@H](O)[C@@H]4[C@@H]([C@@]5(C)CCCC(C)(C)O5)CC[C@@]4(C)[C@]3(C)CC[C@H]2C1(C)C	65.9%	
CC1(C)CCC[C@](C)([C@H]2CC[C@]3(C)[C@@H]2[C@H](O)C[C@@H]2[C@@]4(C)CC[C@H](OC(=O)CN5CCN(Cc6ccccc6)CC5)C(C)(C)[C@@H]4CC[C@]23C)O1.Cl	37.37%	
CC1(C)CCC[C@](C)([C@H]2CC[C@]3(C)[C@@H]2[C@H](O)C[C@@H]2[C@@]4(C)CC[C@H](OC(=O)NC5CCCCC5)C(C)(C)[C@@H]4CC[C@]23C)O1	66.39%	
CC1(C)CCC[C@](C)([C@H]2CC[C@]3(C)[C@@H]2[C@H](O)C[C@@H]2[C@@]4(C)CC[C@H](OC(=O)Nc5ccccc5)C(C)(C)[C@@H]4CC[C@]23C)O1	71.32%	
CC1(C)CCC[C@](C)([C@H]2CC[C@]3(C)[C@@H]2[C@H](O)C[C@@H]2[C@@]4(C)CC[C@H](OC(=O)/C=C/c5ccccc5)C(C)(C)[C@@H]4CC[C@]23C)O1	22.78%	
COc1cc2c(cc1OC)C(=O)C(CC1CCN(Cc3ccccc3)CC1)C2 (centres undefined)		Activity [4]: Active; Activity [5]: Active; Activity [6]: inactive; Activity [7]: inactive; Activity [8]: Active; Activity [9]: Active; Activity [10]: inactive; Activity [11]: Active; Activity [12]: Active; Activity [13]: Active
COC(=O)[C@@H](CC(C)C)NC(=O)CCC(=O)O[C@H]1CC[C@]2(C)[C@H]3C[C@@H](O)[C@@H]4[C@@H]([C@@]5(C)CCCC(C)(C)O5)CC[C@@]4(C)[C@]3(C)CC[C@H]2C1(C)C	16.07%	
COc1ccc(-n2cc(C(=O)O[C@H]3CC[C@]4(C)[C@H]5C[C@@H](O)[C@@H]6[C@@H]([C@@]7(C)CCCC(C)(C)O7)CC[C@@]6(C)[C@]5(C)CC[C@H]4C3(C)C)nn2)cc1	52.37%	
